Source: patent US9474790B2, “Stable, protracted GLP-1/glucagon receptor co-agonists for medical use” (Novo Nordisk A/S, priority 2013, dated 2016)
Numbered stars: 1 amine (or outer) side, 2 acyl side, 3 side chain; on linkers, the order of the positions; unused ones are H or OH. Bridge positions count the residues as written; N and C are the ends. Square brackets hold non-standard residues; d marks the D form. Side chains are listed from the residue outwards. Peptide text beside a SMILES is read from it. I, II: the chains in the order shown. * marks the point of attachment. C18 diacid = O=C(O)CCCCCCCCCCCCCCCCC(=O)*; γGlu = O=C(O)[C@H](CCC(=O)[*:2])N[*:1]; Ac4c = NC1(C(=O)O)CCC1; AEEA = NCCOCCOCC(=O)O; Aib = CC(C)(N)C(=O)O

What was measured:
[1] = Thioflavin T (ThT) fibrillation assay for physical stability; type: physicochemical; details: 250 μM in 10 mM HEPES buffer, pH 7.5, 37° C., shaking 960 rpm
Method in brief: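 Peptide at 250 μM in 10 mM HEPES pH 7.5 with 1 μM ThT, at 37° C with 960 rpm orbital shaking. Fluorescence (ex 444/em 485 nm) read every 20 min after 10 min pre-incubation; sigmoidal fit gives lag time (t0−2τ) and kapp (1/τ). Recovery is RP-HPLC peptide in the centrifuged, 0.22 μm-filtered supernatant as % of initial.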

human GLP-1 receptor = target: T1, human GLP-1 receptor (Homo sapiens, UniProt P43220); assay: GLP-1 receptor potency, CRE luciferase reporter gene assay in BHK cells; type: cell-based; details: BHK cells expressing human GLP-1 receptor, read-out: EC50 GLP-1R
T1 construct: expressed in transfected cells; host or cells: BHK cells (parent BHKTS13), clone FCW467-12A/KZ10-1, with CRE luciferase
Method in brief: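 BHK cells stably expressing human GLP-1 receptor with CRE-luciferase reporter, 5×10EE3 cells/well in phenol red-free DMEM with 10 mM Hepes, 2% ovalbumin, 0.2% Pluronic F-68. Compounds at final 1×10EE-6 to 1×10EE-13 M, 3 h at 37° C; steadylite luminescence; EC50 by four-parameter fit, in pM.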

T1 sequence (P43220 24-463): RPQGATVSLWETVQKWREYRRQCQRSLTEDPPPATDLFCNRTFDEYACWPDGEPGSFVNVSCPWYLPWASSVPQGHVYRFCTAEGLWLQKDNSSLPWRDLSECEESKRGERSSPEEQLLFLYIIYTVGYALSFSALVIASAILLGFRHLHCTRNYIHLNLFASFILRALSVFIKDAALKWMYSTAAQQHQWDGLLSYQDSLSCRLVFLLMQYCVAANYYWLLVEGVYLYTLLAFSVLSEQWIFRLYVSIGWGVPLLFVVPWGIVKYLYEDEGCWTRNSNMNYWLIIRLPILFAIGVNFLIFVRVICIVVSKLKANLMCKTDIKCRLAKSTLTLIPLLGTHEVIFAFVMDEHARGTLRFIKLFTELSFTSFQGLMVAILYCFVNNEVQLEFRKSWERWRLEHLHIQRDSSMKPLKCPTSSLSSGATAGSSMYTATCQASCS

Row | Structure (SMILES) | THT assay Lag time (Ex. 76) [1] [h] | EC50 (human GLP-1 receptor) [pM]
1 | CC(C)C[C@H](NC(=O)[C@H](Cc1ccc(O)cc1)NC(=O)[C@H](CCCCN)NC(=O)[C@H](CO)NC(=O)[C@H](CC(C)C)NC(=O)[C@H](CC(=O)O)NC(=O)[C@H](CO)NC(=O)[C@@H](NC(=O)[C@H](Cc1ccccc1)NC(=O)[C@@H](NC(=O)CNC(=O)[C@H](CCC(N)=O)NC(=O)C1(NC(=O)[C@@H](N)Cc2c[nH]cn2)CCC1)[C@@H](C)O)[C@@H](C)O)C(=O)N[C@@H](CCC(=O)O)C(=O)N[C@@H](CO)C(=O)N[C@@H](CCCNC(=N)N)C(=O)N[C@@H](CCCNC(=N)N)C(=O)N[C@@H](C)C(=O)N[C@@H](CCC(N)=O)C(=O)N[C@@H](CC(=O)O)C(=O)N[C@@H](Cc1ccccc1)C(=O)N[C@H](C(=O)N[C@@H](CCC(N)=O)C(=O)N[C@@H](Cc1c[nH]c2ccccc12)C(=O)N[C@@H](CC(C)C)C(=O)N[C@@H](CC(C)C)C(=O)N[C@@H](CCCCNC(=O)COCCOCCNC(=O)COCCOCCNC(=O)CC[C@H](NC(=O)CC[C@H](NC(=O)CC[C@H](NC(=O)CCCCCCCCCCCCCCCCC(=O)O)C(=O)O)C(=O)O)C(=O)O)C(=O)N[C@H](C(N)=O)[C@@H](C)O)C(C)C [Example 63, N^ε28-[2-[2-[2-[[2-[2-[2-[[(4S)-4-carboxy-4-[[(4S)-4-carboxy-4-[[(4S)-4-carboxy-4-(17-carboxyheptadecanoylamino)butanoyl]amino]butanoyl]amino]butanoyl]amino]ethoxy]ethoxy]acetyl]amino]ethoxy]ethoxy]acetyl]-[Acb2,Leu10,Glu15,Leu27,Lys28]-Glucagon amide] (H-H[Ac4c]QGTFTSDLSKYLESRRAQDFVQWLLK([AEEA-AEEA-γGlu-γGlu-γGlu-C18 diacid])T-NH2; N-terminus assumed) | 45 | 7
2 | CC(C)C[C@H](NC(=O)[C@H](Cc1ccc(O)cc1)NC(=O)[C@H](CCCCN)NC(=O)[C@H](CO)NC(=O)[C@H](CC(C)C)NC(=O)[C@H](CC(=O)O)NC(=O)[C@H](CO)NC(=O)[C@@H](NC(=O)[C@H](Cc1ccccc1)NC(=O)[C@@H](NC(=O)CNC(=O)[C@H](CCC(N)=O)NC(=O)C(C)(C)NC(=O)[C@@H](N)Cc1c[nH]cn1)[C@@H](C)O)[C@@H](C)O)C(=O)N[C@@H](CC(=O)O)C(=O)N[C@@H](C)C(=O)N[C@@H](CCCNC(=N)N)C(=O)N[C@@H](CCCNC(=N)N)C(=O)N[C@@H](C)C(=O)N[C@@H](CCCNC(=N)N)C(=O)N[C@@H](CCC(=O)O)C(=O)N[C@@H](Cc1ccccc1)C(=O)N[C@H](C(=O)N[C@@H](CCC(N)=O)C(=O)N[C@@H](Cc1c[nH]c2ccccc12)C(=O)N[C@@H](CC(C)C)C(=O)N[C@@H](CC(C)C)C(=O)N[C@@H](CC(N)=O)C(=O)N[C@@H](CCCCNC(=O)CC[C@H](NC(=O)CC[C@H](NC(=O)COCCOCCNC(=O)CC[C@H](NC(=O)CCCCCCCCCCCCCCCCC(=O)O)C(=O)O)C(=O)O)C(=O)O)C(N)=O)C(C)C [Example 39, N^ε29-[(4S)-4-carboxy-4-[[(4S)-4-carboxy-4-[[2-[2-[2-[[(4S)-4-carboxy-4-(17-carboxyheptadecanoylamino)butanoyl]amino]ethoxy]ethoxy]acetyl]amino]butanoyl]amino]butanoyl]-[Aib2,Leu10,Ala16,Arg20,Glu21,Leu27,Lys29]-Glucagon amide] (H-H[Aib]QGTFTSDLSKYLDARRAREFVQWLLNK([γGlu-γGlu-AEEA-γGlu-C18 diacid])-NH2; N-terminus assumed) | 45 | 4

Continued by falling EC50 (human GLP-1 receptor), values first:

Row | THT assay Lag time (Ex. 76) [1] [h] | EC50 (human GLP-1 receptor) [pM] | Structure (SMILES)
3 | 45 | 4 | CC(C)C[C@H](NC(=O)[C@H](Cc1ccc(O)cc1)NC(=O)[C@H](CCCCN)NC(=O)[C@H](CO)NC(=O)[C@H](CC(C)C)NC(=O)[C@H](CC(=O)O)NC(=O)[C@H](CO)NC(=O)[C@@H](NC(=O)[C@H](Cc1ccccc1)NC(=O)[C@@H](NC(=O)CNC(=O)[C@H](Cc1c[nH]cn1)NC(=O)C(C)(C)NC(=O)[C@@H](N)Cc1c[nH]cn1)[C@@H](C)O)[C@@H](C)O)C(=O)N[C@@H](CCC(=O)O)C(=O)N[C@@H](CO)C(=O)N[C@@H](CCCNC(=N)N)C(=O)N[C@@H](CCCNC(=N)N)C(=O)N[C@@H](C)C(=O)N[C@@H](CCCNC(=N)N)C(=O)N[C@@H](CC(=O)O)C(=O)N[C@@H](Cc1ccccc1)C(=O)N[C@H](C(=O)N[C@@H](CCC(N)=O)C(=O)N[C@@H](Cc1c[nH]c2ccccc12)C(=O)N[C@@H](CC(C)C)C(=O)N[C@@H](CC(C)C)C(=O)N[C@@H](CCCCNC(=O)CNC(=O)[C@H](CO)NC(=O)[C@H](CCC(=O)O)NC(=O)CNC(=O)[C@H](CO)NC(=O)CC[C@H](NC(=O)CC[C@H](NC(=O)CCCCCCCCCCCCCCCCC(=O)O)C(=O)O)C(=O)O)C(=O)N[C@H](C(N)=O)[C@@H](C)O)C(C)C [Example 37, N^ε28-[2-[[(2S)-2-[[(2S)-4-carboxy-2-[[2-[[(2S)-2-[[(4S)-4-carboxy-4-[[(4S)-4-carboxy-4-(17-carboxyheptadecanoylamino)butanoyl]amino]butanoyl]amino]-3-hydroxypropanoyl]amino]acetyl]amino]butanoyl]amino]-3-hydroxypropanoyl]amino]acetyl]-[Aib2,His3,Leu10,Glu15, Arg20,Leu27,Lys28]-Glucagon amide] (I: H-H[Aib]HGTFTSDLSKYLESRRARDFVQWLLKT-NH2 / II: {C18 diacid-γGlu-γGlu}-SGESG; amide I:28-II:C; N-terminus assumed)
4 | 45 | 3 | CC(C)C[C@H](NC(=O)[C@H](Cc1ccc(O)cc1)NC(=O)[C@H](CCCCN)NC(=O)[C@H](CO)NC(=O)[C@H](CC(C)C)NC(=O)[C@H](CC(=O)O)NC(=O)[C@H](CO)NC(=O)[C@@H](NC(=O)[C@H](Cc1ccccc1)NC(=O)[C@@H](NC(=O)CNC(=O)[C@H](CCC(N)=O)NC(=O)C1(NC(=O)[C@@H](N)Cc2c[nH]cn2)CCC1)[C@@H](C)O)[C@@H](C)O)C(=O)N[C@@H](CCC(=O)O)C(=O)N[C@@H](CO)C(=O)N[C@@H](CCCNC(=N)N)C(=O)N[C@@H](CCCNC(=N)N)C(=O)N[C@@H](C)C(=O)N[C@@H](CCCNC(=N)N)C(=O)N[C@@H](CCC(=O)O)C(=O)N[C@@H](Cc1ccccc1)C(=O)N[C@H](C(=O)N[C@@H](CCC(N)=O)C(=O)N[C@@H](Cc1c[nH]c2ccccc12)C(=O)N[C@@H](CC(C)C)C(=O)N[C@@H](CC(C)C)C(=O)N[C@@H](CCCCNC(=O)CC[C@H](NC(=O)CC[C@H](NC(=O)COCCOCCNC(=O)COCCOCCNC(=O)CC[C@H](NC(=O)CCCCCCCCCCCCCCCCC(=O)O)C(=O)O)C(=O)O)C(=O)O)C(=O)N[C@H](C(N)=O)[C@@H](C)O)C(C)C [Example 44, N^ε28-[(4S)-4-carboxy-4-[[(4S)-4-carboxy-4-[[2-[2-[2-[[2-[2-[2-[[(4S)-4-carboxy-4-(17-carboxyheptadecanoylamino)butanoyl]amino]ethoxy]ethoxy]acetyl]amino]ethoxy]ethoxy]acetyl]amino]butanoyl]amino]butanoyl]-[Acb2,Leu10,Glu15,Arg20,Glu21,Leu27,Lys28]-Glucagon amide] (H-H[Ac4c]QGTFTSDLSKYLESRRAREFVQWLLK([γGlu-γGlu-AEEA-AEEA-γGlu-C18 diacid])T-NH2; N-terminus assumed)
5 | 45 | 3 | CC(C)C[C@H](NC(=O)[C@H](Cc1ccc(O)cc1)NC(=O)[C@H](CCCCN)NC(=O)[C@H](CO)NC(=O)[C@H](CC(C)C)NC(=O)[C@H](CC(=O)O)NC(=O)[C@H](CO)NC(=O)[C@@H](NC(=O)[C@H](Cc1ccccc1)NC(=O)[C@@H](NC(=O)CNC(=O)[C@H](CCC(N)=O)NC(=O)C(C)(C)NC(=O)[C@@H](N)Cc1c[nH]cn1)[C@@H](C)O)[C@@H](C)O)C(=O)N[C@@H](CCC(=O)O)C(=O)N[C@@H](CO)C(=O)N[C@@H](CCCNC(=N)N)C(=O)N[C@@H](CCCNC(=N)N)C(=O)N[C@@H](C)C(=O)N[C@@H](CCCNC(=N)N)C(=O)N[C@@H](CCC(=O)O)C(=O)N[C@@H](Cc1ccccc1)C(=O)N[C@H](C(=O)N[C@@H](CCC(N)=O)C(=O)N[C@@H](Cc1c[nH]c2ccccc12)C(=O)N[C@@H](CC(C)C)C(=O)N[C@@H](CC(C)C)C(=O)N[C@@H](CCCCNC(=O)COCCOCCNC(=O)COCCOCCNC(=O)CC[C@H](NC(=O)CC[C@H](NC(=O)CC[C@H](NC(=O)CCCCCCCCCCCCCCCCC(=O)O)C(=O)O)C(=O)O)C(=O)O)C(=O)N[C@H](C(N)=O)[C@@H](C)O)C(C)C [Example 42, N^ε28-[2-[2-[2-[[2-[2-[2-[[(4S)-4-carboxy-4-[[(4S)-4-carboxy-4-[[(4S)-4-carboxy-4-(17-carboxyheptadecanoylamino)butanoyl]amino]butanoyl]amino]butanoyl]amino]ethoxy]ethoxy]acetyl]amino]ethoxy]ethoxy]acetyl]-[Aib2,Leu10,Glu15,Arg20,Glu21,Leu27,Lys28]-Glucagon amide] (H-H[Aib]QGTFTSDLSKYLESRRAREFVQWLLK([AEEA-AEEA-γGlu-γGlu-γGlu-C18 diacid])T-NH2; N-terminus assumed)
